# Source: patent US7129361B2, “Thienylazolylalkoxyethanamines, their preparation and their application as medicaments” (Laboratorios del Dr. Esteve, S.A., priority 1998, dated 2006)
# Tested on: Male Swiss mice
# Assay: Analgesic activity: inhibition of contortions induced by phenylbenzoquinone in mice (Siegmund method)
# Format: in vivo
# Conditions: 160 mg/Kg, oral administration, 60 minutes before i.p. phenylbenzoquinone; contortions counted for 15 minutes; versus vehicle control
# Protocol: Analgesic Activity: Inhibition of Contortions Induced by Phenylbenzoquinone in Mice
# The method described by Siegmund (E. Siegmund, et al, Proc. Exp. Biol. Med., 1957, 95, 729) has been used. Male Swiss mice are used, weighing between 17 and 22 grams and in groups of at least four animals.
# The contortions are induced by injecting i.p. phenyl-p-benzoquinone (25 ml/Kg of a solution of 0.02% ethanol/water −5% v/v—with Evans blue at a mixing ratio of 0.1% p/v). The contortions are counted for 15 minutes after the moment of the injection. The products to be tested are suspended in Arabic gum (5% p/v) and distilled water and administered orally, at a dosage of 160 mg/Kg, 60 minutes before the phenylbenzoquinone injection. The inhibition of contortions produced by each product is determined, taking the contortions of a group of animals given a control as a reference. These animals only receive the vehicle orally, 60 minutes before administration of phenylbenzoquinone.
row,SMILES,% Inhibition of contortions [%]
1,"CN(C)CCOC(c1cccs1)c1ccnn1C.O=C(O)CC(O)(CC(=O)O)C(=O)O (stereo not drawn) [Example 2, Citrate of 5-{α-[2-(dimethylamino)ethoxy]-2-thienylmethyl}-1-methyl-1H-pyrazol]",65
2,"CN(C)CCOC(c1cccs1)c1ccnn1C.O=C(O)CC(O)(CC(=O)O)C(=O)O (stereo not drawn) [Example 13, Citrate of (−)-5-{α-[2-(dimethylamino)ethoxy]-2-thienylmethyl}-1-methyl-1H-pyrazol]",87
3,"CN(C)CCOC(c1cccs1)c1ccnn1C.O=C(O)CC(O)(CC(=O)O)C(=O)O (stereo not drawn) [Example 12, Citrate of (+)-5-{α-[2-(dimethylamino)ethoxy]-2-thienylmethyl}-1-methyl-1H-pyrazol]",52
4,"CC(=O)Nc1ccc(O)cc1 [N-acetyl-p-aminophenol, reference compound]",34
5,"CN(C)CCOC(C)(c1cccs1)c1ccnn1C (stereo not drawn) [Example 9, 5-{1-[2-(dimethylamino)ethoxy]-1-(2-thienyl)ethyl}-1-methyl-1H-pyrazol]",37
6,"CN(C)CCOC(c1cccs1)c1ccnn1C (stereo not drawn) [Example 1, 5-{α-[2-(dimethylamino)ethoxy]-2-thienylmethyl}-1-methyl-1H-pyrazol]",71
7,"CC(=O)Oc1ccccc1C(=O)O [Acetylsalicylic acid, reference compound]",51
8,"Cc1ccsc1C(OCCN(C)C)c1ccnn1C (stereo not drawn) [Example 5, 5-{α-[2-(dimethylamino)ethoxy]-3-methyl-2-thienylmethyl}-1-methyl-1H-pyrazol]",45

# Tested on: not given
# Assay: not given
# Conditions: not given
row,melting point [°C],SMILES
1,130 to 131,"Cn1nccc1C(C)(O)c1cccs1 (stereo not drawn) [Example 21, 5-[1-hydroxy-1-(2-thienyl)ethyl]-1-methyl-1H-pyrazol]"
